In patent US20120208776A1 (priority 2002, published 2012):
Converted amounts (≈) assume the structure as drawn. “And” between values parts separate entries of the source, which are not always exact repeats. Equal entries are not always repeated. Where two headings read alike, the source gives them in different places.

Legend:
[1] = heart failure; cited from earlier work
MCF7 cells = assay: Cell proliferation, cell count (Coulter Counter); type: cell-based, human; settings: for IC50: Homo sapiens, MCF7 cells, read-out: IC50
[2] = tested on: rat liver gene expression; assay: AffyLimma microarray analysis of rat liver, actein; type: in vivo, Sprague-Dawley rats; settings: for number of genes significantly altered (B>0): actein; for Fold-change relative to control, BZRP, Microarray / Fold-change relative to control, CCND1, Microarray / Fold-change relative to control, CYP7A1, Microarray / Fold-change relative to control, HMGCR, Microarray / Fold-change relative to control, HMGCS1, Microarray / Fold-change relative to control, HSD17B7, Microarray / Fold-change relative to control, ID3, Microarray / Fold-change relative to control, NQO1, Microarray / Fold-change relative to control, S100A9, Microarray: rat liver, 35.7 mg/kg
[3] = tested on: cyclin D1 and p21 mRNA in MDA-MB-453 cells; assay: RT-PCR of mRNA; type: cell-based, human
Procedure: (§1) MDA-MB-453 cells were treated with DMSO or actein for 3, 10, or 24 h. RNA was isolated and analyzed by RT-PCR, using primers for cyclin D1 and actin (control). The staining intensities of the visualized blots were quantified using NIH image software. The relative band intensities were determined by comparing treated samples with untreated controls. These values were then normalized (fold), using actin as an internal control.
as §1, with “using β-actin” for “using actin”

[4] = tested on: MCF10F normal mammary epithelial cells; assay: Cell proliferation, cell count (Coulter Counter); type: cell-based, human; settings: 96 h
[5] = Animal wellness, histopathological examination, tolerated dose; type: in vivo, Sprague-Dawley rats; settings: actein 35.7 mg/kg; 24 hours
Procedure: A sample of each mammary tumor was collected, frozen in liquid nitrogen and kept at −70° C.
Analysis by microscopy: Histopathological examination of H&E and H&E/Oil Red O stained sections of control and treated tissues obtained 6 or 24 hours after treatment were performed. Tissues were embedded in OCT (optimal cutting temperature compound to enable cryosectioning of the sample).
Livers were embedded in OCT (optimal cutting temperature compound to enable cryosectioning of the sample) and stained with haematoxylin and eosin (H and E). All samples were visualized with a Zeiss Axioplan 2 microscope (Carl Zeiss Inc., Thornwood, N.Y.) and images were obtained with a Nikon Coolpix 5000 (Nikon Instruments, Melville, N.Y.) camera.

rat liver mRNAs = type: in vivo, Sprague-Dawley rats; settings: 35.7 mg/kg
Text: Total RNA was isolated using Trizol (Invitrogen, CA), and purified with the RNeasy Kit (Qiagen, CA). mRNA sequences were obtained from the public GeneBank database (www.ncbi.nlm.nih.gov), and primers were designed using Primer3 software from The Massachusetts Institute of Technology (frodo.wi.mit.edu/cgi-bin/primer3/primer3_www.cgi).

[6] = Lipid analysis of rat liver; type: in vivo, Sprague-Dawley rats; settings: actein 35.7 mg/kg; 24 hours
Procedure: (§2) Lipid analysis: Hepatic lipids were extracted by homogenization of the liver followed by addition of choloroform:methanol (2:1). After vortex and centrifugation for 10 min, the organic phase was collected and dried under nitrogen. The dried lipids were dissolved in 1% Triton X-100 in water and sonicated. Extracted hepatic lipids and plasma lipids were measured by cholesterol and triglyceride enzymatic assay kits from Infinity (Louisville, Colo.) according to the manufacturer's instruction. Free fatty acids were measured by Enzymatic assay using NEFA C kit from Wako Chemicals (Richmond, Va.). Tissue lipids were normalized by protein concentration.
as §2, with “Hepatic” for “Lipid analysis: Hepatic”, “liver from the 24 h group,” for “liver”, “vortexing” for “vortex”, “Colo.),” for “Colo.)”, “instructions.” for “instruction.”

NF-κB promoter = assay: NF-κB reporter assay (luciferase); type: cell-based, human; settings: MDA-MB-453, 24 h
Procedure: (§3) The cyclin D1 promoter luciferase reporter plasmid, 1745CD1LUC, was prepared by Dr. R. Pestell (Albert Einstein Cancer Center, New York, N.Y.). The method used for transient transfection reporter assays was previously described (Soh et al., Novel roles of specific isoforms of protein kinase C in activation of the c-fos serum response element. Molecular and Cellular Biology, 19:1313-24, 1999). Using lipofectin, triplicate samples of MDA-MB-453 breast cancer cells (1×10^5 cells in 35-mm plates) were co-transfected using DNA of the indicated reporter plasmid (1 μg) and the β-gal plasmid as an internal control (10 μg of the pCMV-b-gal plasmid) in opti-MEM 1 medium (Life Technologies, Inc.). After 24 h, the medium was replaced with serum-free medium containing the indicated concentrations of actein. After 24 h, cells were harvested, and luciferase activity was determined with the luciferase assay system (Promega Corp. Madison, Wis.); β-gal activities were determined with the β-gal enzyme assay system (Promega). Luciferase activities were normalized to β-gal activities, to correct for differences in transfection efficiency.
NF-κB reporter assay. The NE-κB promoter luciferase reporter plasmid was from Dr. Jae Won Soh. The method for transient transfection reporter assays was as previously described.

cyclin D1 promoter = assay: Cyclin D1 reporter assay (luciferase); type: cell-based, human; settings: MDA-MB-453, 24 h
Procedure: as §3

Compound: C[C@H]1O[C@@H](O[C@H]2[C@@H](O)C[C@H](O[C@H]3[C@@H](O)C[C@H](O[C@H]4CC[C@@]5(C)[C@H](CC[C@@H]6[C@@H]5CC[C@]5(C)[C@@H](C7=CC(=O)OC7)CC[C@]65O)C4)O[C@@H]3C)O[C@@H]2C)C[C@H](O)[C@@H]1O [digitoxin]
- therapeutic plasma concentration [1]: greater than 10 ng/ml and > 13 nM

Compound: CC(=O)O[C@@H]1C[C@@]23C[C@@]24CC[C@H](O[C@@H]2OC[C@@H](O)[C@H](O)[C@H]2O)C(C)(C)[C@@H]4CC[C@H]3[C@]2(C)C[C@@H]3O[C@]4(C[C@@H](C)[C@@H]3[C@@]12C)O[C@H](O)[C@@]1(C)O[C@@H]41 [actein]
- IC50 (MCF7 cells; 96 h): 14 µg/mL
- IC50 (MCF7 cells; 96 h, value in parentheses): 21 µM
- cells alive (MCF7 cells; MCF7, 20 μg/ml, 96 h): 38.0%±3.0
- potency relative to 23-epi-26-deoxyactein or cimifugoside (MCF7 cells; MCF7 growth inhibition): approximately 1.5 fold
- potency relative to cimiracemoside A (MCF7 cells; MCF7 growth inhibition): approximately 3 times
- number of genes significantly altered (B>0) ([2]; 6 hours): 0
- number of genes significantly altered (B>0) ([2]; 24 hours): 109
- Fold-change relative to control, BZRP, Microarray ([2]; 6 h): −0.12
- Fold-change relative to control, CCND1, Microarray ([2]; 6 h): 0.57
- Fold-change relative to control, CYP7A1, Microarray ([2]; 6 h): 0.045
- Fold-change relative to control, HMGCR, Microarray ([2]; 6 h): −0.61
- Fold-change relative to control, HMGCS1, Microarray ([2]; 6 h): −0.66
- Fold-change relative to control, HSD17B7, Microarray ([2]; 6 h): −0.99
- Fold-change relative to control, ID3, Microarray ([2]; 6 h): 0.19
- Fold-change relative to control, NQO1, Microarray ([2]; 6 h): −0.64
- Fold-change relative to control, S100A9, Microarray ([2]; 6 h): −0.64
- Fold-change relative to control, BZRP, Microarray ([2]; 24 h): 1.51
- Fold-change relative to control, CCND1, Microarray ([2]; 24 h): −2.30
- Fold-change relative to control, CYP7A1, Microarray ([2]; 24 h): 2.04
- Fold-change relative to control, HMGCR, Microarray ([2]; 24 h): 1.12
- Fold-change relative to control, HMGCS1, Microarray ([2]; 24 h): 1.11
- Fold-change relative to control, HSD17B7, Microarray ([2]; 24 h): 2.11
- Fold-change relative to control, ID3, Microarray ([2]; 24 h): −0.58
- Fold-change relative to control, NQO1, Microarray ([2]; 24 h): 1.45
- Fold-change relative to control, S100A9, Microarray ([2]; 24 h): 3.01
- cyclin D1 mRNA (RT-PCR) ([3]; 3 h, 20 μg/ml): 0.88 fold
- cyclin D1 mRNA (RT-PCR) ([3]; 3 h, 40 μg/ml): 1 fold
- cyclin D1 mRNA (RT-PCR) ([3]; 10 h, 20 μg/ml): 1.18 fold
- cyclin D1 mRNA (RT-PCR) ([3]; 10 h, 40 μg/ml): 1.02 fold
- cyclin D1 mRNA (RT-PCR) ([3]; 24 h, 20 μg/ml): 0.98 fold
- cyclin D1 mRNA (RT-PCR) ([3]; 24 h, 40 μg/ml): 0.56 fold
- IC50 ([4]; Homo sapiens, MCF-10F, MCF10F cells): 42 µg/mL (≈ 62.1 µM)
- cells alive ([4]; MCF10F, 20 μg/ml): 63.8%±1.4
- liver histology (H&E) [5]: hepatotoxicity
- Fold-change relative to control, BZRP, RT-PCR (rat liver mRNAs; 6 h): 0.07
- Fold-change relative to control, CCND1, RT-PCR (rat liver mRNAs; 6 h): 0.52
- Fold-change relative to control, HMGCR, RT-PCR (rat liver mRNAs; 6 h): −0.45
- Fold-change relative to control, HMGCS1, RT-PCR (rat liver mRNAs; 6 h): −0.82
- Fold-change relative to control, HSD17B7, RT-PCR (rat liver mRNAs; 6 h): −0.66
- Fold-change relative to control, ID3, RT-PCR (rat liver mRNAs; 6 h): 0.30
- Fold-change relative to control, NQO1, RT-PCR (rat liver mRNAs; 6 h): −0.50
- Fold-change relative to control, S100A9, RT-PCR (rat liver mRNAs; 6 h): −0.36
- Fold-change relative to control, BZRP, RT-PCR (rat liver mRNAs; 24 h): 1.13
- Fold-change relative to control, CCND1, RT-PCR (rat liver mRNAs; 24 h): −2.32
- Fold-change relative to control, HMGCR, RT-PCR (rat liver mRNAs; 24 h): 0.45
- Fold-change relative to control, HMGCS1, RT-PCR (rat liver mRNAs; 24 h): 1.44
- Fold-change relative to control, HSD17B7, RT-PCR (rat liver mRNAs; 24 h): 1.21
- Fold-change relative to control, ID3, RT-PCR (rat liver mRNAs; 24 h): −1.52
- Fold-change relative to control, NQO1, RT-PCR (rat liver mRNAs; 24 h): 1.73
- Fold-change relative to control, S100A9, RT-PCR (rat liver mRNAs; 24 h): 2.92
- cholesterol level in liver vs controls [6]: 0.6 fold
- free fatty acid level in liver vs controls [6]: 0.6 fold
- triglyceride content of liver vs controls [6]: no change
- NF-kB promoter activity (NF-κB promoter; 20 μg/ml): 1.59 fold
- NF-kB promoter activity (NF-κB promoter; 40 μg/ml): 0.12 fold
- cyclin D1 promoter activity (cyclin D1 promoter; 20 μg/ml): 0.87 fold
- cyclin D1 promoter activity (cyclin D1 promoter; 40 μg/ml): 0.093 fold
